Patent EP4810500A1, “IMIDAZOL-2-ONE DERIVATIVE AND USE THEREOF IN MEDICINE” (Haisco Pharmaceutical Group Co., Ltd., priority 2023, dated 2025)
Like-named read-outs stand apart in the source and are kept apart here.

Experiments:
[1] = Mouse pharmacokinetic assay; assay type: in vivo, male C57 mice; settings: plasma, mice; for bioavailability: intragastric administration 10 mg/kg (intravenous 2.5 mg/kg); for AUC(0-t): intragastric administration 10 mg/kg
Protocol: Experimental animals: male C57 mice, 22-25 g, 6 mice/compound.
Experimental design: on the day of the experiment, C57 mice were randomly grouped according to body weight. The animals were fasted with water available for 12 h to 14 h one day before the administration, and were fed 4 h after the administration. Table 2. Administration information
Before and after the administration, 0.06 mL of blood was taken from the orbits under isoflurane anaesthesia and placed in an EDTAK2 centrifuge tube. The blood was centrifuged at 5000 rpm at 4°C for 10 min, and the plasma was collected. The blood collection time points for the intravenous administration group and intragastric administration group were 0, 5 min, 15 min, 30 min, 1 h, 2 h, 4 h, 7 h and 24 h. Before analysis and detection, all samples were stored at -80°C, and the samples were quantitatively analysed by LC-MS/MS. Table 2-1 Pharmacokinetic results of test compounds in mice

GLP-1R [2] = target: T1, GLP-1R (Homo sapiens, UniProt P43220); experiment: In vitro activity assay (cAMP HTRF, HEK293-CRE-luc-GLP-1R cells); assay type: cell-based; design: expressed in transfected cells; host or cells: HEK293 (HEK293-CRE-luc-GLP-1R); settings: cAMP HTRF 665 nm/620 nm, 1 h incubation
Protocol: HEK293-CRE-luc-GLP-1R cells were seeded into a 384-well cell culture plate (Greiner #781946) at a certain cell density (5 µL/well). 5 µl/well of 2× working solution was added to the 384-well microplate. The microplate was sealed with parafilm and incubated in a 37°C 5% CO2 incubator (Thermo) for 1 h. Subsequently, the detection was performed using the cAMP-GS HIRANGE KIT (PerkinElmer, 62AM6PEB), and detection reagents were prepared according to the kit instruction manual. After the incubation, the detection reagents were added to the 384-well microplate, and the microplate was incubated for 1 h at room temperature in the dark. HTRF signals at 665 nm and 620 nm were then measured using a multimode microplate reader. Data were exported from the microplate reader in Excel format. GraphPad Prism was opened. The logarithm of the sample concentration was calculated. Using the logarithm of concentration as the x-axis and the 665 nm/620 nm ratio as the y-axis, four-parameter logistic fitting was performed to obtain the EC50 value of the curve. Table 1: EC50 of compounds against GLP-1

CYP3A4 = target: T2, CYP3A4 (Homo sapiens, UniProt P08684); experiment: CYP450 enzyme activity inhibition assay (human liver microsomes); assay type: in vitro ADME
T2 construct: from tissue; host or cells: human liver microsomes
Protocol: (§1) The purpose of this study was to evaluate the effects of the test compounds on the activities of five isoenzymes (CYP1A2, CYP2C9, CYP2C19, CYP2D6, and CYP3A4) of human liver microsomal cytochrome P450 (CYP) using an in vitro testing system. The specific probe substrates of CYP450 isoenzymes were incubated with human liver microsomes and test compounds of different concentrations, and reduced nicotinamide adenine dinucleotide phosphate (NADPH) was added to initiate the reaction. After the completion of the reaction, the sample was treated and liquid chromatography-tandem mass spectrometry (LC-MS/MS) was used to quantitatively detect metabolites produced by specific substrates. Changes in CYP enzyme activity were determined, and IC50 value was calculated to evaluate the inhibitory potential of the test compound on each CYP enzyme subtype.

CYP2D6 = target: T3, CYP2D6 (Homo sapiens, UniProt P10635); experiment: as above; assay type: in vitro ADME
T3 construct: from tissue; host or cells: human liver microsomes
Protocol: as §1

CYP2C9 = target: T4, CYP2C9 (Homo sapiens, UniProt P11712); experiment: as above; assay type: in vitro ADME
T4 construct: from tissue; host or cells: human liver microsomes
Protocol: as §1

CYP2C19 = target: T5, CYP2C19 (Homo sapiens, UniProt P33261); experiment: as above; assay type: in vitro ADME
T5 construct: from tissue; host or cells: human liver microsomes
Protocol: as §1

CYP1A2 = target: T6, CYP1A2 (Homo sapiens, UniProt P05177); experiment: as above; assay type: in vitro ADME
T6 construct: from tissue; host or cells: human liver microsomes
T6 sequence (P05177 1-516): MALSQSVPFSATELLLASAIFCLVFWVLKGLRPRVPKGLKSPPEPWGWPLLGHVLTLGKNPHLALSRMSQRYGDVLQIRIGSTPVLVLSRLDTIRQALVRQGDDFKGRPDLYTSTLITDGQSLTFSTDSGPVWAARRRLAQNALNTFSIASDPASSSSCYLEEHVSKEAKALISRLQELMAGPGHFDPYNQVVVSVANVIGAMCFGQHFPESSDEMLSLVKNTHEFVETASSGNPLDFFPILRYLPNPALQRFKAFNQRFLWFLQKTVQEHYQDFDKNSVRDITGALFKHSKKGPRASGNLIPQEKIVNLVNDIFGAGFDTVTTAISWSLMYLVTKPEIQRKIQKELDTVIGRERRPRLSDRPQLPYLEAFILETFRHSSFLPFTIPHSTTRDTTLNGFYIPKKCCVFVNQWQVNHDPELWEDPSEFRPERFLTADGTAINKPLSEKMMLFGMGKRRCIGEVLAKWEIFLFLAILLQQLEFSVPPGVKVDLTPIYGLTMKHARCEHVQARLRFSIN
Protocol: as §1

GLP-1R [3] = target: T1, GLP-1R; experiment: Oral glucose tolerance test (OGTT); assay type: in vivo, male C57BL/6-G1p1rem2 (hGLP1R) Smoc mice; design: from tissue; host or cells: whole animal: male C57BL/6-Glp1r em2(hGLP1R) Smoc knock-in mice; settings: 3 mg/kg, orally administered; from blood glucose AUC0-2 h after glucose load
Protocol: OGTT experiment was performed in male C57BL/6-G1p1rem2 (hGLP1R) Smoc mice to evaluate the hypoglycaemic effect of GLP-1 receptor agonists. The animals were fasted for more than 16 hours and randomly grouped. Tail tip blood was collected and basal fasting blood glucose (FBG) was measured using a blood glucose meter. Mice with FBG in the range of 3.5-6.5 mmol/L were selected and orally administered, and the control group was administered the vehicle. 15 min after administration, each group of animals was intragastrically administered with 25% glucose solution. Blood glucose levels were measured in tail tip blood collected 15 min, 30 min, 45 min, 1 h, and 2 h after glucose administration. 0-2 h blood glucose AUC0-2 h was calculated using the Graphpad Prism software, and the inhibition rate was further calculated. [formula]

[4] = Monkey pharmacokinetic assay; assay type: in vivo, male cynomolgus monkeys; settings: cynomolgus monkey, monkeys; for bioavailability: intragastric administration 5 mg/kg (intravenous 1 mg/kg); for AUC(0-t): intragastric administration 5 mg/kg
Protocol: Experimental animals: male cynomolgus monkeys, 3-5 kg, 3-6 years old, 5 monkeys/compound, purchased from Hainan New Source Biotechnology Co., Ltd.
Experimental method: On the day of the experiment, five monkeys were randomly grouped according to body weight, with two in the intravenous administration group and three in the intragastric administration group. The animals were fasted with water available for 14 h to 18 h one day before the administration, and were fed 4 h after the administration. Table 3. Administration information

OATP1B1 = target: T7, OATP1B1 (Homo sapiens, UniProt Q9Y6L6); experiment: SLC transporter inhibition assay (HEK293-OATP1B1 cells); assay type: in vitro ADME; settings: test substance 0-30 µM, read-out: IC50 against OATP1B1
T7 construct: expressed in transfected cells; host or cells: HEK293
T7 sequence (Q9Y6L6 1-691): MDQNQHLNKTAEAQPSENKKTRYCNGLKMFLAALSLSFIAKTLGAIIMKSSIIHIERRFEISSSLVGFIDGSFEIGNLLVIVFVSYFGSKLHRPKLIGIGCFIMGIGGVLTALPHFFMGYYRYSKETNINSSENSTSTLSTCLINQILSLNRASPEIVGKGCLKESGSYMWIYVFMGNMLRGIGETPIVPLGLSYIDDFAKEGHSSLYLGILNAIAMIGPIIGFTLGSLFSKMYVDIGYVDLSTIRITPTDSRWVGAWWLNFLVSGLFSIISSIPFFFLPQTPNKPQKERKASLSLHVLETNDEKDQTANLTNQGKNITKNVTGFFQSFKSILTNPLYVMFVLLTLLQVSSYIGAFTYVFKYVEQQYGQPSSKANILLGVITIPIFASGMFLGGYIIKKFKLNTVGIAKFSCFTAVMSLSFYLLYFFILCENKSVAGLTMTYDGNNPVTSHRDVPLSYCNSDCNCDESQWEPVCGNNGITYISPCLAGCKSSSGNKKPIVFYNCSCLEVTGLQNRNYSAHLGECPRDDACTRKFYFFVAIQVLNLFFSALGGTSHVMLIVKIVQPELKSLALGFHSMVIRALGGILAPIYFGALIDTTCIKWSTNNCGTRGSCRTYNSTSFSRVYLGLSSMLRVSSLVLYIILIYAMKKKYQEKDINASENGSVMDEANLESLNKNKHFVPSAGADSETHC
Protocol: (§2) The objective of this study was to evaluate the inhibitory effects of the test substance on the activities of the transporters OATP1B1 and OATP1B3.
(§3) HEK293-OATP1B1 and OATP1B3 cells were incubated with and without the test substance (0-30 µM) for the corresponding time. Samples were then collected, and the substrate content in the samples was detected by liquid chromatography-tandem mass spectrometry (LC-MS/MS). By calculating the transport activity of the transporter with and without the test substance, the percentage of transporter activity of the transporter-expressing cells at different administration concentrations of the test substance (%VC (Vehicle Control, solvent control), the percentage of transport activity of the transporter with and without the test substance) was obtained, and the half-maximal inhibitory concentration (IC50) was calculated from this.

OATP1B3 = OATP1B3 (Homo sapiens, UniProt Q9NPD5); experiment: in vitro; settings: oatp1b3 cells
Chain of OATP1B3 (Q9NPD5 whole entry, species assumed): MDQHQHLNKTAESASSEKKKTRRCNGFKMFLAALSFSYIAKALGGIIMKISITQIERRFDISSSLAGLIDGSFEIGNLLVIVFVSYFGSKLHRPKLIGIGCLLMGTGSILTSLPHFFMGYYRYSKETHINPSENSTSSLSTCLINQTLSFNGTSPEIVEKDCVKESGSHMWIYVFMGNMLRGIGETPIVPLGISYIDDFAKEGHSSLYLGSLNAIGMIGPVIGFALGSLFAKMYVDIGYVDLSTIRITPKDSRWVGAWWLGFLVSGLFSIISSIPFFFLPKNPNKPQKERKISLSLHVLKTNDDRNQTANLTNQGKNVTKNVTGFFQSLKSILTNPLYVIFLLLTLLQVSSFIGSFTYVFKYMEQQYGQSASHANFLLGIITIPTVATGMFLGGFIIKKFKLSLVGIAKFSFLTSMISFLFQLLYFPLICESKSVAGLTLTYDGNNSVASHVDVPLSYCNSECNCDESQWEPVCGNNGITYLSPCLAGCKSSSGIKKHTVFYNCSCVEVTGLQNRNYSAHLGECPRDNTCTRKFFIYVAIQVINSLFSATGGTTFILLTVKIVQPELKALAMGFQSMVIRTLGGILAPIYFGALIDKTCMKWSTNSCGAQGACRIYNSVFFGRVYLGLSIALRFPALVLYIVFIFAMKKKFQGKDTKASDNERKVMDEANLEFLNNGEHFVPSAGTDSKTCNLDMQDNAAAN
Protocol: as §2, §3

T2 sequence (P08684 whole entry): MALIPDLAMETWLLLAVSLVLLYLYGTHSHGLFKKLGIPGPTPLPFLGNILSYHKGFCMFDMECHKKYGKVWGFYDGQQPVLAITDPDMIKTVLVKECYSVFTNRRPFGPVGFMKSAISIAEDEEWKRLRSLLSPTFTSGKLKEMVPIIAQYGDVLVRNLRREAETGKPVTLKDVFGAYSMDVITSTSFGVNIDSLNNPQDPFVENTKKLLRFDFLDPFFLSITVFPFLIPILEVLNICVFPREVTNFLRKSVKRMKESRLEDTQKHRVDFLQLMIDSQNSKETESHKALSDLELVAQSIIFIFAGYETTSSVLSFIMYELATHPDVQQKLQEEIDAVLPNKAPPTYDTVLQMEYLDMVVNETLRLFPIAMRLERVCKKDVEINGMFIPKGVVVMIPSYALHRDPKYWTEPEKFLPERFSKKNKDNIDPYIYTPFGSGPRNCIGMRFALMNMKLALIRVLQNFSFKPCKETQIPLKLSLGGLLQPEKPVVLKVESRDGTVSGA
T1 sequence (P43220 24-463): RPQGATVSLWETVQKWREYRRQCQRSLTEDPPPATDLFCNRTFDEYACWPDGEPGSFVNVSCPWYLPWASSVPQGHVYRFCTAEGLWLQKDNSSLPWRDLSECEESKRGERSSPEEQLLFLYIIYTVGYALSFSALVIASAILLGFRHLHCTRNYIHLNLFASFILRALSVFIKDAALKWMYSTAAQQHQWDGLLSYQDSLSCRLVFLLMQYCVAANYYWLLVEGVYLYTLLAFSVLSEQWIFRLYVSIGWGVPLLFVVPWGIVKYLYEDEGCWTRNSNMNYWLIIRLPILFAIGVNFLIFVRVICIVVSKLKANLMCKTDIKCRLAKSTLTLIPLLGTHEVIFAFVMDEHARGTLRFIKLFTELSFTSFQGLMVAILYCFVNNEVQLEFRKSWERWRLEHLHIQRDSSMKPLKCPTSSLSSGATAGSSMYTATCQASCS
T3 sequence (P10635 whole entry): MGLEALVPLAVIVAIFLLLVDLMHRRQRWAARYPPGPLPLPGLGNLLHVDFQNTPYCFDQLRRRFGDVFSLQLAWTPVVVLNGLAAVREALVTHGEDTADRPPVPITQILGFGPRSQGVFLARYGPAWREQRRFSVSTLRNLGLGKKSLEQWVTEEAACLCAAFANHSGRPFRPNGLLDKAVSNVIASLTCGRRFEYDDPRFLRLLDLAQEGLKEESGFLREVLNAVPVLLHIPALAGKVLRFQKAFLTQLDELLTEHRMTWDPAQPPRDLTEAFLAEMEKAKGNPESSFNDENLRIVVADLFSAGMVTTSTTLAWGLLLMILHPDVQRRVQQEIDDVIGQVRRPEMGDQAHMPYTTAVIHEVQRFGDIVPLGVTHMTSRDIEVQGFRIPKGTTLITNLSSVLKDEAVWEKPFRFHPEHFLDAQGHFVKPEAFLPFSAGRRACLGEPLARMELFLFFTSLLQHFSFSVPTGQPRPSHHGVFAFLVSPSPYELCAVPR
T5 sequence (P33261 whole entry): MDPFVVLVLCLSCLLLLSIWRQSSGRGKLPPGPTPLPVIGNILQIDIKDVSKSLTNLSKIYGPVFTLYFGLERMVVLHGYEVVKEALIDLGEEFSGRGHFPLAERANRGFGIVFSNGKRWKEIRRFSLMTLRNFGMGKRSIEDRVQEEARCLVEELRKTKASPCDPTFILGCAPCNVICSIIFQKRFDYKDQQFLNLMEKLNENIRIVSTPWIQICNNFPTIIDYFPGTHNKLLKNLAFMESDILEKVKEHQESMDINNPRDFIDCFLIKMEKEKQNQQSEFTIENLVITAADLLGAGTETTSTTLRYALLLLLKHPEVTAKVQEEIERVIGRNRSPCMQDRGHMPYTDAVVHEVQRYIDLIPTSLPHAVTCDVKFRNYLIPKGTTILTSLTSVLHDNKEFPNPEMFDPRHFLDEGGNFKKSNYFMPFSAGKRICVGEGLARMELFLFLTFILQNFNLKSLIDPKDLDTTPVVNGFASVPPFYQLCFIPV
T4 sequence (P11712 whole entry): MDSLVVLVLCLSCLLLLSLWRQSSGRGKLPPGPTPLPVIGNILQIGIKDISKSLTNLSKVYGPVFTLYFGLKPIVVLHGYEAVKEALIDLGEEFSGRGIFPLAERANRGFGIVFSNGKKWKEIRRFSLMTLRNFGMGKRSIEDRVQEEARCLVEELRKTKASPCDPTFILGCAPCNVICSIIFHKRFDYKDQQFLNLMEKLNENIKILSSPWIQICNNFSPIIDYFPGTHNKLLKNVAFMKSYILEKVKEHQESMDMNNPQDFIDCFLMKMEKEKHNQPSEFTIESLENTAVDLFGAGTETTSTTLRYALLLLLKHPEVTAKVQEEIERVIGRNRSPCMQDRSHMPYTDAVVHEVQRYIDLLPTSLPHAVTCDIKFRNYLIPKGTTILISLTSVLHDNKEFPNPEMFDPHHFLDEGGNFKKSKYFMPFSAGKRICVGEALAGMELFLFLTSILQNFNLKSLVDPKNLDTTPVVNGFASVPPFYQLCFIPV

Structure (SMILES)	bioavailability ([1]; mouse, po) [%]	AUC(0-t) ([1]; mouse, po) [ng·h/mL]	EC50 (GLP-1R [2]) [µM]	IC50 (CYP3A4; human, microsomes) [µM]	IC50 (CYP2D6; human, microsomes) [µM]	IC50 (CYP2C9; human, microsomes) [µM]	IC50 (CYP2C19; human, microsomes) [µM]	IC50 (CYP1A2; human, microsomes) [µM]	blood glucose inhibition rate (GLP-1R [3]) [%]	other results
C=C(F)c1cc(-n2nc3c(c2-n2ccn(-c4ccc5c(c4F)N(C)C(=O)C54CCOCC4)c2=O)[C@H](C)N(C(=O)c2cc4cc([C@H]5CCOC(C)(C)C5)ccc4n2[C@@]2(c4noc(=O)[nH]4)C[C@@H]2C)CC3)ccc1F [Compound 54]	33.8	12100	< 0.001	–	–	–	–	–	–	–
Cc1cc(-n2nc3c(c2-n2ccn(-c4ccc5c(c4)N(C)C(=O)C54CCOCC4)c2=O)[C@H](C)N(C(=O)c2cc4cc(C5CCOC(C)(C)C5)sc4n2C2(c4noc(=O)[nH]4)C[C@@H]2C)CC3)cc(C)c1F (single isomer, unassigned) [Compound 9]	–	–	< 0.001	> 30	> 30	3.31	> 30	> 30	–	–
[2H]C([2H])([2H])N1C(=O)C2(CCOCC2)c2ccc(-n3ccn(-c4c5c(nn4-c4ccc(F)c(C(=C)F)c4)CCN(C(=O)c4cc6cc([C@H]7CCOC(C)(C)C7)ccc6n4[C@@]4(c6noc(=O)[nH]6)C[C@@H]4C)[C@H]5C)c3=O)c(F)c21 [Compound 55]	25.1	8670	< 0.001	–	–	–	–	–	–	–
[2H]C([2H])([2H])N1C(=O)C2(CCOCC2)c2ccc(-n3ccn(-c4c5c(nn4-c4cc(C)c(F)c(C)c4)CCN(C(=O)c4cc6cc([C@H]7CCOC(C)(C)C7)ccc6n4[C@@]4(c6noc(=O)[nH]6)C[C@@H]4C)[C@H]5C)c3=O)cc21 [Compound 3]	–	–	< 0.001	> 30	> 30	> 30	> 30	> 30	-37.1	–
Cc1cc(-n2nc3c(c2-n2ccn(-c4ccc5c(cnn5C)c4F)c2=O)[C@H](C)N(C(=O)c2cc4cc([C@H]5CCOC(C)(C)C5)ccc4n2[C@@]2(c4noc(=O)[nH]4)C[C@@H]2C)CC3)cc(C)c1F [Orforglipron, reference compound]	–	–	–	–	–	–	–	–	-9.8	bioavailability ([1]; male, C57, mouse, oral): 7.93%; AUC(0-t) ([1]; male, C57, mouse, po): 3260 ng·h/mL; bioavailability ([4]; male, plasma, oral): 1.93%; AUC(0-t) ([4]; male, po, plasma): 584 ng·h/mL; IC50 (CYP3A4; human liver microsomes, NADPH, read-out: IC50 (µM) CYP3A4): > 30 µM; IC50 (CYP2D6; human liver microsomes, NADPH, read-out: IC50 (µM) CYP2D6): > 30 µM; IC50 (CYP2C9; human liver microsomes, NADPH, read-out: IC50 (µM) CYP2C9): 0.905 µM; IC50 (CYP2C19; human liver microsomes, NADPH, read-out: IC50 (µM) CYP2C19): > 30 µM; IC50 (CYP1A2; human liver microsomes, NADPH, read-out: IC50 (µM) CYP1A2): > 30 µM
C[C@H]1c2c(nn(-c3ccc(F)c(C4(F)CC4)c3)c2-n2ccn(-c3ccc4c(c3)N(C)C(=O)C43CCOCC3)c2=O)CCN1C(=O)c1cc2cc([C@H]3CCOC(C)(C)C3)ccc2n1[C@@]1(c2noc(=O)[nH]2)C[C@@H]1C [Compound 6]	–	–	< 0.001	> 30	> 30	> 30	> 30	> 30	–	IC50 (OATP1B1): > 2 µM; IC50 (OATP1B3): > 1 µM
Cc1cc(-n2nc3c(c2-n2ccn(-c4ccc5c(c4)N(C)C(=O)C54CCOCC4)c2=O)[C@H](C)N(C(=O)c2cc4cc([C@H]5CCOC(C)(C)C5)ccc4n2[C@@]2(c4noc(=O)[nH]4)C[C@@H]2C)CC3)cc(C)c1F [Compound 2]	70.3	23200	< 0.001	–	–	–	–	–	-25.5	bioavailability ([4]; in vivo, po): 32.6%; AUC(0-t) ([4]; po, plasma): 11600 ng·h/mL
Cc1cc(-n2nc3c(c2-n2ccn(-c4ccc5c(c4)N(C)C(=O)C54CCN(C(=O)C5CC5)CC4)c2=O)[C@H](C)N(C(=O)c2cc4cc([C@H]5CCOC(C)(C)C5)ccc4n2[C@@]2(c4noc(=O)[nH]4)C[C@@H]2C)CC3)cc(C)c1F [Compound 12]	–	–	< 0.001	–	–	–	–	–	–	–
[2H]C([2H])([2H])N1C(=O)C2(CCN(C(=O)C3CC3F)CC2)c2ccc(-n3ccn(-c4c5c(nn4-c4cc(C)c(F)c(C)c4)CCN(C(=O)c4cc6cc(C7CCOC(C)(C)C7)ccc6n4C4(c6noc(=O)[nH]6)CC4C)C5C)c3=O)cc21 (stereo not drawn) [Compound 40]	–	–	< 0.001	–	–	–	–	–	–	–
